For the experiment, the system named is liver fibrosis. The experiment is described as follows: Carbon tetrachloride-induced fibrosis model mouse (Sirius Red staining). Type of experiment: in vivo, C57BL/6 male mice. To be noted: carbon tetrachloride 8 weeks, drug for last 4 weeks, IC-2 10.6 mg/kg i.p. 3 times a week, vs vehicle group. As to the method: To induce anesthesia, 1-mL disposable syringe with a 27-G needle was used to intraperitoneally inject, into a mouse, 1 μL/g body weight of a systemic anesthetic somnopentyl (Kyoritsuseiyaku Corporation, Tokyo).
The liver tissue sample, as so resected, was fixed in 4% paraformaldehyde (Nacalai tesque, Kyoto) at room temperature for 16 h, embedded in paraffin, and sectioned with a microtome to prepare tissue sections, which were then stained by using a Picosirius Red Stain Kit (Polysciences Inc., Warrington, Pa.) in accordance with the attached protocol. After that, a BZ-9000 (KEYENCE CORPORATION, Osaka) was used to take 10 photographs of light-field enlarged images (100×) per tissue sample. The ratio of the red-stained fiber area to the total tissue area of each photographed image was quantified to calculate a fibrosis-positive area ratio.
Seven-week-old C57BL/6 male mice (Japan SLC, Inc., Shizuoka) were subjected to 1-week preparatory rearing and healthy ones were then used. The mice were housed in animal cages at a room temperature of 22±1° C. and a humidity of 50±5% throughout the preparatory rearing and experimental period and were given ad libitum access to food and water.
A microsyringe (ITO CORPORATION, Shizuoka) was used to intraperitoneally administer 0.2 ml/kg of carbon tetrachloride (CCl4; Wako Pure Chemical Industries, Ltd.) 3 times a week for 4, 6, or 8 weeks. […]

As to `O=C1C(Cc2ccccc2)N2C(=O)CCN(C(=O)NCc3ccccc3)C2CN1Cc1cccc2ccccc12` (stereo not shown) [IC-2], the “fibrosis area (Sirius Red staining)” value is “decrease more than that of the vehicle group”.
